According to patent US11725011B2, “Bicyclic urea kinase inhibitors and uses thereof” (The Broad Institute, Inc., priority 2016, dated 2023):

How the values were obtained:
EGFR (G719C) = EGFR (G719C) (Homo sapiens (Human), UniProt P00533, G719C); test: KINOMEscan; assay type: binding; conditions: 1 uM
YSK4 = YSK4 (Homo sapiens (Human), UniProt Q56UN5); test: KINOMEscan; assay type: binding; conditions: 1 uM
IKK-epsilon = IKK-epsilon (Homo sapiens (Human), UniProt Q14164); test: KINOMEscan; assay type: binding; conditions: 1 uM
SRPK3 = SRPK3 (Homo sapiens (Human), UniProt Q9UPE1); test: KINOMEscan; assay type: binding; conditions: 1 uM
MAP3K1 = MAP3K1 (Homo sapiens (Human), UniProt Q13233); test: KINOMEscan; assay type: binding; conditions: 1 uM
PLK4 = PLK4 (Homo sapiens (Human), UniProt O00444); test: KINOMEscan; assay type: binding; conditions: 1 uM
TNK2 = TNK2 (Homo sapiens (Human), UniProt Q07912); test: KINOMEscan; assay type: binding; conditions: 1 uM
PIM3 = PIM3 (Homo sapiens (Human), UniProt Q86V86); test: KINOMEscan; assay type: binding; conditions: 1 uM
SIK2 = SIK2 (Homo sapiens (Human), UniProt Q9H0K1); test: Percent activity against SIK2 at 1 μM; assay type: biochemical
EPHA4 = EPHA4 (Homo sapiens (Human), UniProt P54764); test: KINOMEscan; assay type: binding; conditions: 1 uM
TBK1 = TBK1 (Homo sapiens (Human), UniProt Q9UHD2); test: KINOMEscan; assay type: binding; conditions: 1 uM
MLK2 = MLK2 (Homo sapiens (Human), UniProt Q02779); test: KINOMEscan; assay type: binding; conditions: 1 uM
[1] = target: RSK4 (Kin.Dom.2-C-terminal) (Homo sapiens (Human), UniProt Q9UK32); test: KINOMEscan; assay type: binding; conditions: 1 uM
LATS2 = LATS2 (Homo sapiens (Human), UniProt Q9NRM7); test: KINOMEscan; assay type: binding; conditions: 1 uM
PRKG2 = PRKG2 (Homo sapiens (Human), UniProt Q13237); test: KINOMEscan; assay type: binding; conditions: 1 uM
NEK2 = NEK2 (Homo sapiens (Human), UniProt P51955); test: KINOMEscan; assay type: binding; conditions: 1 uM
CDK9 = CDK9 (Homo sapiens (Human), UniProt P50750); test: KINOMEscan; assay type: binding; conditions: 1 uM
FRK = FRK (Homo sapiens (Human), UniProt P42685); test: KINOMEscan; assay type: binding; conditions: 1 uM
MYLK2 = MYLK2 (Homo sapiens (Human), UniProt Q9H1R3); test: KINOMEscan; assay type: binding; conditions: 1 uM
BTK = BTK (Homo sapiens (Human), UniProt Q06187); test: KINOMEscan; assay type: binding; conditions: 1 uM
EGFR (G719S) = EGFR (G719S) (Homo sapiens (Human), UniProt P00533, G719S); test: KINOMEscan; assay type: binding; conditions: 1 uM
CDC2L5 = CDC2L5 (Homo sapiens (Human), UniProt Q14004); conditions: 1 uM
CASK = CASK (Homo sapiens (Human), UniProt O14936); test: KINOMEscan; assay type: binding; conditions: 1 uM
TAOK3 = TAOK3 (Homo sapiens (Human), UniProt Q9H2K8); test: KINOMEscan; assay type: binding; conditions: 1 uM
MST3 = MST3 (Homo sapiens (Human), UniProt Q9Y6E0); test: KINOMEscan; assay type: binding; conditions: 1 uM
PAK7 = PAK7 (Homo sapiens (Human), UniProt Q9P286); test: KINOMEscan; assay type: binding; conditions: 1 uM
EGFR = EGFR (Homo sapiens (Human), UniProt P00533); test: KINOMEscan; assay type: binding; conditions: 1 uM
PIK3C2B = PIK3C2B (Homo sapiens (Human), UniProt O00750); test: KINOMEscan; assay type: binding; conditions: 1 uM
YES = YES (Homo sapiens (Human), UniProt P07947); test: KINOMEscan; assay type: binding; conditions: 1 uM
STK35 = STK35 (Homo sapiens (Human), UniProt Q8TDR2); test: KINOMEscan; assay type: binding; conditions: 1 uM
PKN1 = PKN1 (Homo sapiens (Human), UniProt Q16512); test: KINOMEscan; assay type: binding; conditions: 1 uM
MARK4 = MARK4 (Homo sapiens (Human), UniProt Q96L34); test: KINOMEscan; assay type: binding; conditions: 1 uM
SYK = SYK (Homo sapiens (Human), UniProt P43405); test: KINOMEscan; assay type: binding; conditions: 1 uM
MUSK = MUSK (Homo sapiens (Human), UniProt O15146); test: KINOMEscan; assay type: binding; conditions: 1 uM
NEK4 = NEK4 (Homo sapiens (Human), UniProt P51957); test: KINOMEscan; assay type: binding; conditions: 1 uM
CAMK2A = CAMK2A (Homo sapiens (Human), UniProt Q9UQM7); test: KINOMEscan; assay type: binding; conditions: 1 uM
[2] = target: TYK2 (JH1domain-catalytic) (Homo sapiens (Human), UniProt P29597); test: KINOMEscan; assay type: binding; conditions: 1 uM
TIE2 = TIE2 (Homo sapiens (Human), UniProt Q02763); test: KINOMEscan; assay type: binding; conditions: 1 uM
SIK = SIK (Homo sapiens (Human), UniProt P57059); test: KINOMEscan; assay type: binding; conditions: 1 uM
EPHA2 = EPHA2 (Homo sapiens (Human), UniProt P29317); test: KINOMEscan; assay type: binding; conditions: 1 uM
ERBB3 = ERBB3 (Homo sapiens (Human), UniProt P21860); test: KINOMEscan; assay type: binding; conditions: 1 uM
ERBB3, sequence (P21860 20-1342): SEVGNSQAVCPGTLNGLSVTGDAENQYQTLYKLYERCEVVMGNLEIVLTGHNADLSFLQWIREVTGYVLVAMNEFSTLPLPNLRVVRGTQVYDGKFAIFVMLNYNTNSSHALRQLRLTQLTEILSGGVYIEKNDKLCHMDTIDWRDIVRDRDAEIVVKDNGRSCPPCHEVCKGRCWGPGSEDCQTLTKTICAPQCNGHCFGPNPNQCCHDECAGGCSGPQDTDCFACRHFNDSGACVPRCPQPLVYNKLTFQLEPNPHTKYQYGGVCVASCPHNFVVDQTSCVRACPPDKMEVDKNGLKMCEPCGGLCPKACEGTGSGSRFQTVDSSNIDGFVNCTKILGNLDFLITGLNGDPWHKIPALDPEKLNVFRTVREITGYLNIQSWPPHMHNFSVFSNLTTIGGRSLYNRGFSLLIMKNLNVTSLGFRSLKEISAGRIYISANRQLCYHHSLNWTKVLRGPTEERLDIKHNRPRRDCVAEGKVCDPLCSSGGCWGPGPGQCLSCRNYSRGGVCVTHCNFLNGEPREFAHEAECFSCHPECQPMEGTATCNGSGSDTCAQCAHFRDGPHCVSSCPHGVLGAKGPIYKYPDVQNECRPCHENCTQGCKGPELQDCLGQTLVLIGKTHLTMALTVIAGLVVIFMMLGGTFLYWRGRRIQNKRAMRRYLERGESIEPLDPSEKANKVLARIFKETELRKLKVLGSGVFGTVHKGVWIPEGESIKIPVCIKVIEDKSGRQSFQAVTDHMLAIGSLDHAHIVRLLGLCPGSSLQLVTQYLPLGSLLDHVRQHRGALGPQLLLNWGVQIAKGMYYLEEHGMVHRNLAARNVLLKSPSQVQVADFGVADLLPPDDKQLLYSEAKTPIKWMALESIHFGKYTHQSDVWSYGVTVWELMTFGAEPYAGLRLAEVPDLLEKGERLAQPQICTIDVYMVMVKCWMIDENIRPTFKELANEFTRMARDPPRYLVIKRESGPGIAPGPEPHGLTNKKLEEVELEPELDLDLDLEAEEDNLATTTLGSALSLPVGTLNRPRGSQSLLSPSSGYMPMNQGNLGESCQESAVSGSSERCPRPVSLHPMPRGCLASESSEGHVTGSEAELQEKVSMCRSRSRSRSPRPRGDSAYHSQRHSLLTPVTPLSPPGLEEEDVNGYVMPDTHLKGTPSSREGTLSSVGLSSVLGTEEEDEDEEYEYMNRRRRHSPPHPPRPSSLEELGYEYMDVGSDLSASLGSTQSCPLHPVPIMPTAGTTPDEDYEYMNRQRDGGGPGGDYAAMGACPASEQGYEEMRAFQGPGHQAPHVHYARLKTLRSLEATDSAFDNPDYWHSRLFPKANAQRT

SIK2, sequence (Q9H0K1 whole entry): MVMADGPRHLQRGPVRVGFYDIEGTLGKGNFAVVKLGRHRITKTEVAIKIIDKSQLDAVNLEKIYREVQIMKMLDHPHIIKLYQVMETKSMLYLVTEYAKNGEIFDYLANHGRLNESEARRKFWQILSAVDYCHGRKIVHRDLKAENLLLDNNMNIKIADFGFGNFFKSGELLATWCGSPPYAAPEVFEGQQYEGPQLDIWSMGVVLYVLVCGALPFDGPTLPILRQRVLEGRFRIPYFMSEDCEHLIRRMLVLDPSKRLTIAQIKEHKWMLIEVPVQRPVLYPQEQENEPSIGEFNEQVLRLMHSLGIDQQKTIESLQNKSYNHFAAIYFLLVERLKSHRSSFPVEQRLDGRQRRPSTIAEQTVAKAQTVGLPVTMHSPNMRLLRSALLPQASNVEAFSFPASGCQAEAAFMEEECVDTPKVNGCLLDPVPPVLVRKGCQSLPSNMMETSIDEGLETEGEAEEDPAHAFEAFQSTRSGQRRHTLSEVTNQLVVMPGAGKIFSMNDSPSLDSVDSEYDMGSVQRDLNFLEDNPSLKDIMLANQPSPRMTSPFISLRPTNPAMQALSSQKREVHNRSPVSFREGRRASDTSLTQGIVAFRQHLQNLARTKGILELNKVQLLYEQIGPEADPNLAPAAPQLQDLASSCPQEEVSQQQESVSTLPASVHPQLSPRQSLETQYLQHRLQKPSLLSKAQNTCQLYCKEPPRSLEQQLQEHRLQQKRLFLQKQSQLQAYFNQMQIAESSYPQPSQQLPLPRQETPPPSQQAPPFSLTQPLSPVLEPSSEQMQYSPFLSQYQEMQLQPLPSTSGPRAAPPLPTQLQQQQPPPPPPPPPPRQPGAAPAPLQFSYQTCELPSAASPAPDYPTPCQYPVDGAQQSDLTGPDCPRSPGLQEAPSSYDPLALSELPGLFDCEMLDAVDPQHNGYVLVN
TYK2 (JH1domain-catalytic), sequence (P29597 897-1176): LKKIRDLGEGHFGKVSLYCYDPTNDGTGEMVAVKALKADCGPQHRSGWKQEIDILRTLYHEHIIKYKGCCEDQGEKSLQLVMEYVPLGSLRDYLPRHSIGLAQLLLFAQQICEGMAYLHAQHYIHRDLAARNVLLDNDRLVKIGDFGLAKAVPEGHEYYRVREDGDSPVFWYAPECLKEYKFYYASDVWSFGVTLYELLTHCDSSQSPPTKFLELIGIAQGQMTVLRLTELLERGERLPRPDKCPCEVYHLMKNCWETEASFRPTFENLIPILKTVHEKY
CAMK2A, sequence (Q9UQM7 whole entry): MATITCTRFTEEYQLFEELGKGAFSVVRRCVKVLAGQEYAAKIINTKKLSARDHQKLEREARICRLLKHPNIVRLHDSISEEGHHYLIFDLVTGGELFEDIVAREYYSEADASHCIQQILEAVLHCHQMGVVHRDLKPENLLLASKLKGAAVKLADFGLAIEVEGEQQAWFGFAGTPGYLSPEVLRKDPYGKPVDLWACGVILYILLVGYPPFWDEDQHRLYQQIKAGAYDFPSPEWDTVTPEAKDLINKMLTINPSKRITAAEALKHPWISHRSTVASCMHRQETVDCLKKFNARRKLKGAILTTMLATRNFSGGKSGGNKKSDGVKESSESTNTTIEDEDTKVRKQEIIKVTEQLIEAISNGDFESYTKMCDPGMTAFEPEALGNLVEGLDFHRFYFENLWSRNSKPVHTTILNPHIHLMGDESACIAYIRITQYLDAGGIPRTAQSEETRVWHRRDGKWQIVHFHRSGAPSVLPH
EGFR (G719C), sequence (P00533 25-1210 G719C): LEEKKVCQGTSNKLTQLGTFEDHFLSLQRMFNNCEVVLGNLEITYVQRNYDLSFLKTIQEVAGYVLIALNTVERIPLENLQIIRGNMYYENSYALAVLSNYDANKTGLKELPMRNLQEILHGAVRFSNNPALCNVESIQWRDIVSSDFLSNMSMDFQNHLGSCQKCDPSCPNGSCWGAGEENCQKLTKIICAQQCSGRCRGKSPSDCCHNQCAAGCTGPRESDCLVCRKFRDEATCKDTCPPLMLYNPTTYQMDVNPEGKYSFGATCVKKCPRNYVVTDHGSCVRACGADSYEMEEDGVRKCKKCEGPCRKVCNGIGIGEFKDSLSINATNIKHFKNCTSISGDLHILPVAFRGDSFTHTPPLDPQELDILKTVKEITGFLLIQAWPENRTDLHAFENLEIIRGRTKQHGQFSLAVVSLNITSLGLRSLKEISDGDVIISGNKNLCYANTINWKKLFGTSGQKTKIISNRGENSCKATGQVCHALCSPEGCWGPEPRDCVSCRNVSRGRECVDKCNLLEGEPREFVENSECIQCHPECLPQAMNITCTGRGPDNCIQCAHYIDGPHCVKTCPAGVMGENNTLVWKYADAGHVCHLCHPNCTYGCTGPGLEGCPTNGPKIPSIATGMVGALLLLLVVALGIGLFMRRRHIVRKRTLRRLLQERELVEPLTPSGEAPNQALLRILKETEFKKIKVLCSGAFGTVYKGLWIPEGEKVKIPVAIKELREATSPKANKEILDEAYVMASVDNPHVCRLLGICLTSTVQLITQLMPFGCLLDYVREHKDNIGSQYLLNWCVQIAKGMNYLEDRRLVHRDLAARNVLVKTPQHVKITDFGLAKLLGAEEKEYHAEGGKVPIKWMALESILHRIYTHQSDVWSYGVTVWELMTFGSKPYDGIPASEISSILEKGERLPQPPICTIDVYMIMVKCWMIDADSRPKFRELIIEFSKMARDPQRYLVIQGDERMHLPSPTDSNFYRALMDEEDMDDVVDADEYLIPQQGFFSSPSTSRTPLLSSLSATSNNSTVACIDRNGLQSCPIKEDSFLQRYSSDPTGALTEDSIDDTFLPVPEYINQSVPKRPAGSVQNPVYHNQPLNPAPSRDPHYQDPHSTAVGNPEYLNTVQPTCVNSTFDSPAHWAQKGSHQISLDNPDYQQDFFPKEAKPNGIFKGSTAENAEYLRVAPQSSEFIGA
MARK4, sequence (Q96L34 whole entry): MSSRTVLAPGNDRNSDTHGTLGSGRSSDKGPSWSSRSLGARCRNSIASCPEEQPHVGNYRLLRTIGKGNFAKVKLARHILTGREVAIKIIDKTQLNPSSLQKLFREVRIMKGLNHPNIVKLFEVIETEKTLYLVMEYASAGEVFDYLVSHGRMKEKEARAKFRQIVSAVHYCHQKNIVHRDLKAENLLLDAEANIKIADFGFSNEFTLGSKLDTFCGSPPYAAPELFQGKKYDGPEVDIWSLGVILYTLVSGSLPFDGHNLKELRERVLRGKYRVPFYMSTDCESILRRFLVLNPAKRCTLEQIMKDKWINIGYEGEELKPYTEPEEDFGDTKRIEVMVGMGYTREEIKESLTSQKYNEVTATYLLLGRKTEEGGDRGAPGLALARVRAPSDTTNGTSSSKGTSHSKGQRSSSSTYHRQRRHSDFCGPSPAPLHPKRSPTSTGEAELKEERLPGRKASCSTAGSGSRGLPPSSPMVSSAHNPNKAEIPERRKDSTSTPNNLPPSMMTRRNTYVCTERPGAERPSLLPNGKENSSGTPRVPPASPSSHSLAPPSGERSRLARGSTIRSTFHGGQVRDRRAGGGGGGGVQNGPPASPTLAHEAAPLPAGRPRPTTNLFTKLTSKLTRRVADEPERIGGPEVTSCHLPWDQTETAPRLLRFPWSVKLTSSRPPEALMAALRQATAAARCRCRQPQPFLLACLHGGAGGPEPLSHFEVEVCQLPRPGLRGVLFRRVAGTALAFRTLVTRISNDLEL

For `COc1ccc(N2C(=O)N(c3c(C)cccc3C)Cc3cnc(Nc4ccc(N5CCN(C)CC5)cc4)nc32)c(OC)c1` [HG-11-136-01], the “KINOMEscan EGFR (G719C)” value (EGFR (G719C)) was 0.1, the “KINOMEscan YSK4” value (YSK4) was 0.4 and the “KINOMEscan IKK-epsilon” value (IKK-epsilon) was 47. The “KINOMEscan SRPK3” value (SRPK3) was 70, the “KINOMEscan MAP3K1” value (MAP3K1) was 73 and the “KINOMEscan PLK4” value (PLK4) was 18. The “KINOMEscan TNK2” value (TNK2) was 0.15, the “KINOMEscan PIM3” value (PIM3) was 90 and the “Enzyme activity at 1 μM (%) SIK2” value (SIK2; 1 μM) was 2.8%. For the same molecule, the “SIK2 % ACTIVITY” value (SIK2; compound at 1 μM, approximate Km for ATP) was 2.8%, the “KINOMEscan EPHA4” value (EPHA4) was 0 and the “KINOMEscan TBK1” value (TBK1) was 37. For the same molecule, the “KINOMEscan MLK2” value (MLK2) was 11, the “KINOMEscan RSK4 (Kin.Dom.2-C-terminal)” value [1] was 4 and the “KINOMEscan LATS2” value (LATS2) was 60. The “KINOMEscan PRKG2” value (PRKG2) was 92, the “KINOMEscan NEK2” value (NEK2) was 75 and the “KINOMEscan CDK9” value (CDK9) was 91. The “KINOMEscan FRK” value (FRK) was 0.05, the “KINOMEscan MYLK2” value (MYLK2) was 81 and the “KINOMEscan BTK” value (BTK) was 0.05. For the same molecule, the “KINOMEscan EGFR (G719S)” value (EGFR (G719S)) was 0.2, the “KINOMEscan CDC2L5” value (CDC2L5) was 65 and the “KINOMEscan CASK” value (CASK) was 54. For the same molecule, the “KINOMEscan TAOK3” value (TAOK3) was 1.8, the “KINOMEscan MST3” value (MST3) was 4.6 and the “KINOMEscan PAK7” value (PAK7) was 1.3. For the same molecule, the “KINOMEscan EGFR” value (EGFR) was 0.7, the “KINOMEscan PIK3C2B” value (PIK3C2B) was 0.55 and the “KINOMEscan YES” value (YES) was 0.05. The “KINOMEscan STK35” value (STK35) was 49, the “KINOMEscan PKN1” value (PKN1) was 95 and the “KINOMEscan MARK4” value (MARK4) was 32. The “KINOMEscan SYK” value (SYK) was 1.2, the “KINOMEscan MUSK” value (MUSK) was 86 and the “KINOMEscan NEK4” value (NEK4) was 100. The “KINOMEscan CAMK2A” value (CAMK2A) was 93, the “KINOMEscan TYK2 (JH1domain-catalytic)” value [2] was 5.6 and the “KINOMEscan TIE2” value (TIE2) was 0.75. For the same molecule, the “KINOMEscan SIK” value (SIK) was 0.9, the “KINOMEscan EPHA2” value (EPHA2) was 0.6 and the “KINOMEscan ERBB3” value (ERBB3) was 0.
